Laboratory results taken from PubChem BioAssay AID248 (DTP/NCI, 2004).
Where “and” joins values, the source holds several entries; their conditions need not be identical. Identical values can stand only once. Inconclusive results and toxic doses are left out.

Test system: L1210 leukemia ip in BDF1 mice, survival T/C
Assay: NCI In Vivo Anticancer Drug Screen. Data for tumor model L1210 Leukemia (intraperitoneal) in B6D2F1 (BDF1) mice
Conditions: endpoint: mean survival time, higher = longer survival
Summary of the method: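 Survival endpoint. Drug-treated group vs vehicle group, expressed as T divided by C. Tumor passaged by transplantation.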

[1] = dose: 100.0 mg/kg/injection, schedule: Q04DX003 (ip), vehicle: Klucel (hydroxypropylcellulose) (HPC)
[2] = dose: 200.0 mg/kg/injection, schedule: Q04DX003 (ip), vehicle: Klucel (hydroxypropylcellulose) (HPC)
[3] = dose: 400.0 mg/kg/injection, schedule: Q04DX003 (ip), vehicle: Klucel (hydroxypropylcellulose) (HPC)
[4] = dose: 100.0 mg/kg/injection, schedule: Q04DX003 (ip), vehicle: saline
[5] = dose: 200.0 mg/kg/injection, schedule: Q04DX003 (ip), vehicle: saline
[6] = dose: 400.0 mg/kg/injection, schedule: Q04DX003 (ip), vehicle: saline

O=C1C(N2CCOCC2)=C(c2ccccc2)c2ccccc21
T/C (dose: 7.3 mg/kg/injection, schedule: Q01DX009 (ip), vehicle: other): 94 % of control and 103 % of control | T/C (dose: 11.0 mg/kg/injection, schedule: Q01DX009 (ip), vehicle: other): 96 % of control and 100 % of control | T/C (dose: 12.5 mg/kg/injection, schedule: Q01DX009 (ip), vehicle: other): 350 % of control | T/C (dose: 16.5 mg/kg/injection, schedule: Q01DX009 (ip), vehicle: other): 96 % of control and 100 % of control | T/C (dose: 37.5 mg/kg/injection, schedule: Q01DX009 (ip), vehicle: other): 96 % of control and 101 % of control | T/C (dose: 50.0 mg/kg/injection, schedule: Q01DX009 (ip), vehicle: other): 98 % of control | T/C (dose: 100.0 mg/kg/injection, schedule: Q01DX009 (ip), vehicle: other): 88 % of control | T/C (dose: 200.0 mg/kg/injection, schedule: Q01DX009 (ip), vehicle: other): 93 % of control

O=C(O)CCC1(CCC(=O)O)SCSCS1
T/C [1]: 93 % of control | T/C [2]: 98 % of control | T/C [3]: 93 % of control

CCCCCCCCCCCCCCCCCCNC(=S)NC1CCCCC1
T/C (dose: 60.0 mg/kg/injection, schedule: Q01DX015 (ip), vehicle: carboxymethylcellulose (CMC)): 98 % of control | T/C (dose: 120.0 mg/kg/injection, schedule: Q01DX015 (ip), vehicle: carboxymethylcellulose (CMC)): 96 % of control | T/C (dose: 240.0 mg/kg/injection, schedule: Q01DX015 (ip), vehicle: carboxymethylcellulose (CMC)): 96 % of control | T/C (dose: 480.0 mg/kg/injection, schedule: Q01DX015 (ip), vehicle: carboxymethylcellulose (CMC)): 98 % of control

Nc1c(Cl)cc2c(c1Br)Cc1ccccc1-2
T/C (dose: 50.0 mg/kg/injection, schedule: Q01DX001 (ip), vehicle: carboxymethylcellulose (CMC)): 107 % of control | T/C (dose: 100.0 mg/kg/injection, schedule: Q01DX001 (ip), vehicle: carboxymethylcellulose (CMC)): 107 % of control | T/C (dose: 200.0 mg/kg/injection, schedule: Q01DX001 (ip), vehicle: carboxymethylcellulose (CMC)): 117 % of control | T/C (dose: 400.0 mg/kg/injection, schedule: Q01DX001 (ip), vehicle: carboxymethylcellulose (CMC)): 107 % of control

CCCCCCC(=C/c1ccccc1)/C=N/NC(=O)c1ccc[n+](C)c1
T/C (dose: 25.0 mg/kg/injection, schedule: Q04DX003 (ip), vehicle: saline with Tween-80): 93 % of control | T/C (dose: 50.0 mg/kg/injection, schedule: Q04DX003 (ip), vehicle: saline with Tween-80): 116 % of control | T/C (dose: 100.0 mg/kg/injection, schedule: Q04DX003 (ip), vehicle: saline with Tween-80): 104 % of control

O=S(=O)(CBr)/C(Br)=C/c1ccccc1
T/C (dose: 50.0 mg/kg/injection, schedule: Q04DX002 (ip), vehicle: Klucel (hydroxypropylcellulose) (HPC)): 97 % of control | T/C (dose: 100.0 mg/kg/injection, schedule: Q04DX002 (ip), vehicle: Klucel (hydroxypropylcellulose) (HPC)): 94 % of control | T/C (dose: 200.0 mg/kg/injection, schedule: Q04DX002 (ip), vehicle: Klucel (hydroxypropylcellulose) (HPC)): 103 % of control

N=C(N)c1cccc(NC(=O)c2ccc(C(=O)Nc3cccc(C(=N)N)c3)c(N)c2)c1
T/C (dose: 5.0 mg/kg/injection, schedule: Q01DX Z (ip), vehicle: carboxymethylcellulose (CMC)): 106 % of control | T/C (dose: 10.0 mg/kg/injection, schedule: Q01DX Z (ip), vehicle: carboxymethylcellulose (CMC)): 104 % of control | T/C (dose: 20.0 mg/kg/injection, schedule: Q01DX Z (ip), vehicle: carboxymethylcellulose (CMC)): 120 % of control

O=C(O)CSC(CC(=O)O)C(F)(F)C(F)(F)C(F)(F)F (configuration not stated)
T/C (dose: 100.0 mg/kg/injection, schedule: Q01DX009 (ip), vehicle: saline): 100 % of control | T/C [4]: 96 % of control | T/C (dose: 200.0 mg/kg/injection, schedule: Q01DX009 (ip), vehicle: saline): 97 % of control | T/C [5]: 98 % of control | T/C (dose: 400.0 mg/kg/injection, schedule: Q01DX009 (ip), vehicle: saline): 104 % of control | T/C [6]: 93 % of control

CC(C)(C)c1cccc(C(C)(C)C)c1O
T/C [4]: 102 % of control | T/C [5]: 98 % of control | T/C [6]: 90 % of control

CC1CN(Cc2ccc([N+](=O)[O-])cc2)CC(C)N1N (configuration not stated)
T/C (dose: 50.0 mg/kg/injection, schedule: Q01DX005 (ip), vehicle: saline with Tween-80): 98 % of control | T/C (dose: 100.0 mg/kg/injection, schedule: Q01DX005 (ip), vehicle: saline with Tween-80): 103 % of control

COP(=O)(OC)/C(=N\NS(=O)(=O)c1ccc(C)cc1)c1ccccc1
T/C [1]: 94 % of control | T/C [2]: 101 % of control | T/C [3]: 94 % of control
